Blank lines part the entries; values can stand above or below the molecule they belong to.
Tests used:
thromboxane synthetase = target: T1, thromboxane synthetase (Homo sapiens, UniProt P24557); experiment: in vitro inhibition of thromboxane synthetase (14C-arachidonic acid, TxB2/PGF2α+β ratio); type: biochemical; conditions: 30 minutes incubation
T1 construct: crude microsomal preparation of thromboxane synthetase from lysed human platelets; from tissue; host or cells: human platelets (lysed, crude microsomal preparation)
T1 sequence (P24557 1-533): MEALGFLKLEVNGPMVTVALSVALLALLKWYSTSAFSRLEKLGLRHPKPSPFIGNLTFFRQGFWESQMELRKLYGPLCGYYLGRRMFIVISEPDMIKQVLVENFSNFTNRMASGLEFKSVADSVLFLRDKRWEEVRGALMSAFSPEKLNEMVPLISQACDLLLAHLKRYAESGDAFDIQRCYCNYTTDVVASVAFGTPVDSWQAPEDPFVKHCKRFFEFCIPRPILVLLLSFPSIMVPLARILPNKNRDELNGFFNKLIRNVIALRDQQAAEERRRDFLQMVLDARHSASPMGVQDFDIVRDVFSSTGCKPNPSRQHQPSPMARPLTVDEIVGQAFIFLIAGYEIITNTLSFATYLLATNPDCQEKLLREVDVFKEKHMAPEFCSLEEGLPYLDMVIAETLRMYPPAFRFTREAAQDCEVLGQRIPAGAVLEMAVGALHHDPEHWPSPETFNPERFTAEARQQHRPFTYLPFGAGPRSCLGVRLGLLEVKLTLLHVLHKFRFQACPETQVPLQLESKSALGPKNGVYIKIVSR
Protocol: Res. Comm. 74, 1432 (1977); the testing procedure is as follows:
^14 C-Arachiodonic acid is incubated with an exzyme consisting of solubilized and partially purified prostaglandin cyclo-oxygenase from sheep seminal vesicles and a crude microsomal preparation of thromboxane synthetase from lysed human platelets. The test compound (dissolved in buffer, or if necessary, in a small amount of ethanol) is added to the incubation medium. At the end of the incubation period (30 minutes), Prostaglandin E2 (PGE2) is reduced to a mixture of Prostaglandin F2 α and F2 β (PGF2α+β) by addition of sodium borohydride. The radioactive products and excess substrate are extracted into ethyl acetate; the extract is evaporated to dryness; the residue is dissolved in acetone, spotted on thin-layer plates and chromatographed in the solvent system toluene: acetone: glacial acetic acid (100 volumes: 100 volumes: 3 volumes). The radioactive zones are located; those corresponding to Thromboxane B2 (TxB2) and PGF2 α+β are transferred to liquid scintillation vials and counted. The ratio of counts for TxB2 /PGF2 α+β is calculated for each concentration of test compound and IC50 values are determined graphically as the concentration of test compound at which the ratio of T×B2 /[…] is reduced to 50% of the control value.

[1] = target: T2, prostaglandin cyclooxygenase (Ovis aries, UniProt P05979); experiment: in vitro effect on prostaglandin cyclooxygenase (14C-arachidonic acid to PGE2); type: biochemical, sheep; conditions: read-out: IC50 for inhibition of cyclooxygenase
T2 construct: Lyophilized sheep seminal vesicle microsomes are utilized as the prostaglandin-synthesizing enzyme preparation; from tissue; host or cells: sheep seminal vesicle microsomes (lyophilized)
T2 sequence (P05979 25-600): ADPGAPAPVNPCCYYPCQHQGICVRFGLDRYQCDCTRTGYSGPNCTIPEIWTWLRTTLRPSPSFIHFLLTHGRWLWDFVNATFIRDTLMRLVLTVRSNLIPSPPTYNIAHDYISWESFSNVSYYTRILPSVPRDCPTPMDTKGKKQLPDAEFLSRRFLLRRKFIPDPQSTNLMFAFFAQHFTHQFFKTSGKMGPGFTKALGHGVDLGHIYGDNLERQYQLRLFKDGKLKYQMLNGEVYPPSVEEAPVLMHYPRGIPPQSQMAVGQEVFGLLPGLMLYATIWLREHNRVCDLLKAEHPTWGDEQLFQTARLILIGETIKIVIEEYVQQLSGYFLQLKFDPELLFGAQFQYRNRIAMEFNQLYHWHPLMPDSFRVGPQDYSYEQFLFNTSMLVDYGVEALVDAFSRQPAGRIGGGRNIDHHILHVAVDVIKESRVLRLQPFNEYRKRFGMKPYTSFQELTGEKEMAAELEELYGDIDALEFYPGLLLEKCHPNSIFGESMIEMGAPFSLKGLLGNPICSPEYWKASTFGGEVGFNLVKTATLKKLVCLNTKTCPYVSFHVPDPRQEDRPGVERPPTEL
Protocol: The in-vitro effect on prostaglandin cyclooxygenase is measured by a modification of the method of Takeguchi et al. described in Biochemistry 10, 2372 (1971); the testing procedure is as follows: Lyophilized sheep seminal vesicle microsomes are utilized as the prostaglandin-synthesizing enzyme preparation. The conversion of ^14 C-arachidonic acid to PGE2 is measured. Test compounds (dissolved in buffer, or if necessary, in a small amount of ethanol) are added to the incubation mixture. The prostaglandins are extracted and separated by thin-layer chromatography; the plates are scanned, the radioactive zones corresponding to PGE2 are transferred to liquid scintillation vials and counted for radioactivity. IC50 values for inhibition are determined graphically as the concentration of test compound causing a 50% reduction in the amount of PGE2 synthesized.

[2] = target: T3, prostacyclin (PGI2) synthetase (Bos taurus, UniProt Q29626); experiment: in vitro effect on prostacyclin (PGI2) synthetase (6-keto-PGF1α/PGE2 ratio); type: biochemical, bovine; conditions: pH 7.5, 30 minutes at 37° C., read-out: IC50 for inhibition of prostacyclin synthetase
T3 construct: crude PGI2 synthetase in the form of a microsomal fraction of bovine aorta; from tissue; host or cells: bovine aorta (microsomal fraction)
T3 sequence (Q29626 1-500): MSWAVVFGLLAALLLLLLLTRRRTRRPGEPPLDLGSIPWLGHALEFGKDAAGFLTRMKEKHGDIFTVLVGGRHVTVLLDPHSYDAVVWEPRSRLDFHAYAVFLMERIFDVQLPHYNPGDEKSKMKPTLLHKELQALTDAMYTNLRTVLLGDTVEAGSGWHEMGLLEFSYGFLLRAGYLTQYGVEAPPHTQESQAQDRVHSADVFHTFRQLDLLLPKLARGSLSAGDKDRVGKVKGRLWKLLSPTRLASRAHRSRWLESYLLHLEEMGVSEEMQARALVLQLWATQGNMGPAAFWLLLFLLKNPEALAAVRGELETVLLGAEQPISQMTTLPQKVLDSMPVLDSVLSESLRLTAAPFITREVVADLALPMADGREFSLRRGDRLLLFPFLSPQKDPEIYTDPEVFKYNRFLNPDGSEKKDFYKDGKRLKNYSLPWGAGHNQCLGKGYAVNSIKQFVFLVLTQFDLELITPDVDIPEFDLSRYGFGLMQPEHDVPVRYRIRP
Protocol: The in-vitro effect on prostacyclin (PGI2) synthetase is measured analogous to the method of Sun et al., Prostaglandins 14, 1055 (1977);
The testing procedure is as follows:
^14 C-Arachiodonic acid is incubated with an enzyme mixture consisting of solubilized and partially purified prostaglandin cyclo-oxygenase from sheep seminal vesicles and crude PGI2 synthetase in the form of a microsomal fraction of bovine aorta.
Test compound (dissolved in buffer, or if necessary, in a small amount of ethanol) is placed in the incubation medium. The reaction mixture is incubated in 100 mM Tris HCl (pH 7.5) for 30 minutes at 37° C., acidified to pH 3 and extracted into ethyl acetate. The extract is evaporated to dryness; the residue is dissolved in acetone, spotted on thin-layer plates and chromatographed in a solvent system described by Sun et al.. The radioactive zones are located with a scanner; those corresponding to 6-keto-PGF1 α(a stable end product of prostacyclin biotransformation) and PGE2 are transferred to liquid scintillation vials and counted. The ratio of counts for 6-keto-PGF1 α/PGE2 is calculated for each concentration of test compound used. IC50 values for inhibition are determined graphically as the concentration of test compound at which the ratio of 6-keto-PGF1 α/PGE2 is reduced to 50% of the control value.

platelet aggregation = experiment: inhibition of variously induced platelet aggregation; type: cell-based
thrombocytopenia = experiment: inhibition of variously induced thrombocytopenia; conditions: in vivo
bleeding time = experiment: prolongation of bleeding time in the rat; type: in vivo; conditions: oral, about 10 mg/kg
From the text: Experimentally, prolongation of bleeding time in the rat is indicative of a beneficial antithrombotic effect.

thromboxane B2 = experiment: reduction of plasma levels of thromboxane in vivo in rats (ionophore A23187, radioimmunoassay of thromboxane B2); conditions: rat, oral dose 0.10 mg/kg
Protocol: (§1) The inhibition of the synthesis and the reduction of plasma levels of thromboxane is determined in vivo on administration to rats in the following manner (as adapted from the procedures described by Tai et al. in Anal. Biochem. 87:343, 1978 and by Salmon in Prostaglandins 15:383, 1978):
(§2) Rats are dosed with vehicle or test drug and injected intravenously with ionophore A23187 (0.5 mg/kg) two hours later. Blood is collected for analysis 2 minutes after the inonophore injection. A single aliquot of each plasma sample is assayed for thromboxane B2 and another aliquot for 6-keto-PGF1 α, the stable metabolites of thromboxane A2 and prostacyclin (PGI2) respectively, by radioimmunoassay.

prostacyclin = experiment: plasma level of prostacyclin in vivo in rats (ionophore A23187, radioimmunoassay of 6-keto-PGF1α); conditions: rat, oral dose 0.10 mg/kg
Protocol: as §1, §2

IC50 (thromboxane synthetase): 2.2 nM
IC50 [1]: ~100000 nM
IC50 [2]: ~100000 nM
SMILES: Cn1c(-c2cccnc2)c(CCCCCC(=O)O)c2ccccc21 [3-(5-carboxypentyl)-1-methyl-2-(3-pyridyl)indole]
inhibition of variously induced platelet aggregation (platelet aggregation): inhibits
inhibition of variously induced thrombocytopenia (thrombocytopenia): inhibits

IC50 (thromboxane synthetase): ~1.7 nM
SMILES: O=C(O)CCCCCc1c(-c2cccnc2)[nH]c2ccccc12 [3-(5-carboxypentyl)-2-(3-pyridyl)indole]
prolongation of bleeding time (bleeding time): prolongs bleeding time

SMILES: Cn1c(-c2cccnc2)c(CCCCCC(=O)O)c2cc(Cl)ccc21 [3-(5-carboxypentyl)-5-chloro-1-methyl-2-(3-pyridyl)indole]
decrease of plasma concentration of thromboxane B2 (thromboxane B2): over 50%
increase in the plasma level of prostacyclin (prostacyclin): approximately 8 fold

IC50 (thromboxane synthetase): ~2 nM
SMILES: O=C(O)CCCCCc1c(-c2cccnc2)[nH]c2ccc(Cl)cc12 [3-(5-carboxypentyl)-5-chloro-2-(3-pyridyl)indole]
